Experimental data taken from US9808456B2, “Piperazine thiazole derivatives useful in the treatment of tauopathies such as Alzheimer's disease” (REMYND NV, priority 2011, dated 2017).

Legend:
[1] = Microsomal stability assay, human liver microsomes (intrinsic clearance); type: in vitro ADME; conditions: read-out: CLint. (Hum)
Protocol: (§1) Microsomal Stability Testing—Assay Description
(§2) The microsomal stability assay measures the rate of disappearance of a test compound from an incubation containing human or animal liver microsomes and metabolic cofactors (typically NADPH). The assay is primarily used for ranking the relative CYP-mediated metabolism propensities of compounds within a chemical series and as a guide to selecting sufficiently stable compounds for pharmacokinetics and pharmacodynamics experiments. [In addition to CYPs, microsomally located enzymes which also make use of NADPH (such as […]) and those which require no cofactors (such as carboxylesterases) are active.]
(§3) Incubations are performed in 96-well deep-well plates with a final incubation volume of 600 μL. Incubations contain (finally) 1-20 μM test compound, 0.5 mg/mL liver microsomes (typically human, rat or mouse) and NADPH regenerating system. 50 μL aliquots are removed after 1, 3, 6, 9, 15, 25, 35 and 45 minutes and quenched in 150 μL acetonitrile containing internal standard. Samples are then cooled and centrifuged before analysis by LC-MS/MS.
(§4) Log peak area ratio (test compound peak area/internal standard peak area) is plotted against incubation time and a linear fit made to the data with emphasis upon the initial rate of compound disappearance. […]

[2] = Microsomal stability assay, rat liver microsomes (intrinsic clearance); type: in vitro ADME
Protocol: as §1, §2, §3, §4

[3] = Lipophilicity (logD) by Carrier mediated distribution system (CAMDIS); type: physicochemical
Protocol: Lipophilicity data were measured with the Carrier mediated distribution system (CAMDIS) as described in EP1705474A1.

M17_3TAU(P301L) cells = experiment: Neuroblastoma tauopathy model: inhibition of TAU-induced cytotoxicity (LDH) after retinoic acid differentiation; type: cell-based; conditions: Homo sapiens, 168 h, inhibition of TAU-induced toxicity, 7 days retinoic acid, LDH readout
From the text: A TAU expression plasmid was constructed by sub-cloning the cDNA encoding for human TAU-P301L protein, wherein proline at position 301 is substituted by a leucine residue, into mammalian expression vector pcDNA3.1 resulting in the plasmid pcDNA3.1-TAUP301L. Plasmids pcDNA3.1 and pcDNA3.1-TAU P301L were transfected into human neuroblastoma cells (BE-M17; ATCC No. CRL2267™) using lipofectamine reagent and subsequently, independent clonal cell lines with the plasmids stably integrated into the genome were selected by antibiotic resistance selection (Geneticin (G418)), resulting in cell lines M17.pcDNA3 and M17_3TAUP301L. Expression of the TAUP301L gene in the M17_3TAUP301L cells was confirmed by Western blot analysis.
Differentiation of the cells with RA leads to phosphorylation and subsequent aggregation of TAU, inducing a tauopathy in these cells. Cytotoxicity of cells was measured by quantification of lactate dehydrogenase (LDH) levels. In dead cells LDH is leaked out of the cells into the medium due to a loss of plasma-membrane integrity.
Briefly, 3 days preceeding the experiment pre-cultures of M17.pcDNA3 and M17_3TAU(P301L) cells were prepared, starting from a stock culture, at a density of 50.000-100.000 cells/cm2 in detection medium (Optimem Reduced Serum without phenol red (Gibco, Cat. 31985-047) supplemented with 1% fetal calf serum (FCS), 1 mM sodium pyruvate, 1× non-essential amino acids (NEAR), 500 μg/ml G418 and 0.5× antibiotic/antimycotic (ABAM)). At the day of the experiment these precultures were diluted to ˜0, 1.106 cells/ml in detection medium without FCS and 60 μL of this suspension is dispensed per well into a 96-well microtiter plate. After 3 hours of incubation at 37° C./5% CO2 an equal volume of detection medium containing 2.5 μM RA was added and subsequently incubated for 7 days at 37° C./5% CO2. After 7 days, LDH activity was determined using the Promega Cytotox 96 Non-Radioactive cytotoxicity assay (Cat. G1780), according the manufacturer's instructions. Cytotoxicity is measured as the ratio of LDH increase in the supernatant divided by the LDH increase in the total cell suspension (sum of the LDH measured in cells and supernatant).
The M17_3TAU(P301L) cell line makes it possible to assess the ability of novel compounds to inhibit TAU-induced cytotoxicity. […] Compounds were tested for their ability to hamper TAU-induced toxicity at different concentrations, ranging from low non-effective concentrations to high potent concentrations. Afterwards, the dose-dependent inhibition curve was used to calculate their EC50 (Table III).

SMILES | EC50 (M17_3TAU(P301L) cells) [nM] | other results
FC1(F)CCN(c2nsc(N3CCN(CCc4ccc(Cl)cc4)CC3)n2)CC1 [Example 2, 1-[2-(4-Chloro-phenyl)-ethyl]-4-[3-(4,4-difluoro-piperidin-1-yl)-[1,2,4]thiadiazol-5-yl]-piperazine] | 53.6 | microsomal CLint [1]: 17 µL/min/mg; microsomal CLint [2]: 80 µL/min/mg; logD [3]: 2.93
Fc1ccc(CCN2CCN(c3nc(NC4CCCCC4)ns3)CC2)cc1F [Example 17, Cyclohexyl-(5-{4-[2-(3,4-difluoro-phenyl)-ethyl]-piperazin-1-yl}-[1,2,4]thiadiazol-3-yl)-amine] | 3.8 | 
Fc1ccc(CCN2CCN(c3nc(N4CCCCC4)ns3)CC2)cc1F [Example 18, 1-[2-(3,4-Difluoro-phenyl)-ethyl]-4-(3-piperidin-1-yl-[1,2,4]thiadiazol-5-yl)-piperazine] | 46.4 | 
Fc1ccc(CCN2CCN(c3nc(NC4CCC(C(F)(F)F)CC4)ns3)CC2)cc1F (stereo not drawn) [Example 19, (5-{4-[2-(3,4-Difluoro-phenyl)-ethyl]-piperazin-1-yl}[1,2,4]thiadiazol-3-yl)-(4-trifluoromethyl-cyclohexyl)-amine] | 340 | 
CCCCN(CC)c1nsc(N2CCN(CCc3ccc(F)c(F)c3)CC2)n1 [Example 20, Butyl-(5-{4-[2-(3,4-difluoro-phenyl)-ethyl]-piperazin-1-yl}-[1,2,4]thiadiazol-3-yl)-ethyl-amine] | 709 | 
COc1ccc(CCN2CCN(c3nc(C4CCCCC4)ns3)CC2)cc1 [Example 21, 1-(3-Cyclohexyl-[1,2,4]thiadiazol-5-yl)-4-[2-(4-methoxy-phenyl)-ethyl]-piperazine] | 2.2 | 
COc1cccc(CCN2CCN(c3nc(C4CCCCC4)ns3)CC2)c1 [Example 22, 1-(3-Cyclohexyl-[1,2,4]thiadiazol-5-yl)-4-[2-(3-methoxy-phenyl)-ethyl]-piperazine] | 3 | 
CCCCc1nsc(N2CCN(CCc3ccc(OC)cc3)CC2)n1 [Example 23, 1-(3-Butyl-[1,2,4]thiadiazol-5-yl)-4-[2-(4-methoxy-phenyl)-ethyl]-piperazine] | 0.5 | 
COc1ccc(CCN2CCN(c3nc(C4CC4)ns3)CC2)cc1 [Example 24, 1-(3-Cyclopropyl-[1,2,4]thiadiazol-5-yl)-4-[2-(4-methoxy-phenyl)-ethyl]-piperazine] | 44.5 | 
CCCCc1nsc(N2CCN(CCc3cccc(OC)c3)CC2)n1 [Example 25, 1-(3-Butyl-[1,2,4]thiadiazol-5-yl)-4-[2-(3-methoxy-phenyl)-ethyl]-piperazine] | 2.2 | 
COc1cccc(CCN2CCN(c3nc(C4CC4)ns3)CC2)c1 [Example 26, 1-(3-Cyclopropyl-[1,2,4]thiadiazol-5-yl)-4-[2-(3-methoxy-phenyl)-ethyl]-piperazine] | 410 | 
Fc1ccc(CCN2CCN(c3nc(C4CCOCC4)ns3)CC2)cc1 [Example 27, 1-[2-(4-Fluoro-phenyl)-ethyl]-4-[3-(tetrahydro-pyran-4-yl)-[1,2,4]thiadiazol-5-yl]-piperazine] | 309 | 
COc1ccc(CCN2CCN(c3nc(C4CCOCC4)ns3)CC2)cc1 [Example 28, 1-[2-(4-Methoxy-phenyl)-ethyl]-4-[3-(tetrahydro-pyran-4-yl)[1,2,4]thiadiazol-5-yl]-piperazine] | 33.3 | 
COc1cc(CCN2CCN(c3nc(C4CCOCC4)ns3)CC2)ccn1 [Example 29, 1-[2-(2-Methoxy-pyridin-4-yl)-ethyl]-4-[3-(tetrahydro-pyran-4-yl)-[1,2,4]thiadiazol-5-yl]-piperazine] | 203 | 
Cc1ccccc1CN1CCN(c2nc(C3CCOCC3)ns2)CC1 [Example 30, 1-(2-Methyl-benzyl)-4-[3-(tetrahydro-pyran-4-yl)-[1,2,4]thiadiazol-5-yl]-piperazine] | 414 | 
Fc1ccc(CCN2CCN(c3nc(C4CCOCC4)ns3)CC2)cc1F [Example 31, 1-[2-(3,4-Difluoro-phenyl)-ethyl]-4-[3-(tetrahydro-pyran-4-yl)-[1,2,4]thiadiazol-5-yl]-piperazine] | 308 | 
Clc1ccc(CCN2CCN(c3nc(Cc4ccc(Cl)cc4)ns3)CC2)cc1 [reference compound] |  | microsomal CLint [1]: 43 µL/min/mg; microsomal CLint [2]: 48 µL/min/mg
